In ChEMBL document CHEMBL1201862, “PubChem BioAssay data set” (2004):
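Protocol summary: plate cells (96-well), add compound at 5 concentrations, incubate 48 h, interpolate endpoints linearly. GI50 is the concentration that inhibits growth by half.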 Active and inactive are the calls of the source. Rule as the data show it: active = GI50 up to about 1.1 µM and inactive = higher.

What was measured:
Experiment in all cases: growth of human tumour cells (NCI), 48 h
SK-MEL-28 = test system: SK-MEL-28
SK-MEL-5 = test system: SK-MEL-5
CAKI-1 = test system: CAKI-1
DMS-273 = test system: DMS-273
786-0 = test system: 786-0
NCI-H23 = test system: NCI-H23
OVCAR-8 = test system: OVCAR-8
HOP-92 = test system: HOP-92
MOLT-4 = test system: MOLT-4
UACC-257 = test system: UACC-257
U-251 = test system: U-251
SNB-75 = test system: SNB-75
SF-295 = test system: SF-295
RXF 393 = test system: RXF 393
K562 = test system: K562
M14 = test system: M14
LXFL 529 = test system: LXFL 529
HCT-15 = test system: HCT-15
TK-10 = test system: TK-10

Row | Compound | GI50 (SK-MEL-28) | GI50 (SK-MEL-5) | GI50 (CAKI-1) | GI50 (DMS-273) | GI50 (786-0) | GI50 (NCI-H23) | GI50 (OVCAR-8) | GI50 (HOP-92) | GI50 (MOLT-4) | GI50 (UACC-257) | GI50 (U-251) | GI50 (SNB-75) | GI50 (SF-295) | GI50 (RXF 393) | GI50 (K562) | GI50 (M14) | GI50 (LXFL 529) | GI50 (HCT-15) | GI50 (TK-10)
1 | COc1ccc(NC(=O)CC(=O)N2N=C(N(CCC#N)c3cccc(C)c3)CC2c2ccccc2)cc1 (stereo not given) | > 100 µM (inactive) | > 100 µM (inactive) | > 100 µM (inactive) | > 100 µM (inactive) | > 100 µM (inactive) | > 100 µM (inactive) | > 100 µM (inactive) | > 100 µM (inactive) | > 100 µM (inactive) | > 100 µM (inactive) | > 100 µM (inactive) | > 100 µM (inactive) | > 100 µM (inactive) | > 100 µM (inactive) | > 100 µM (inactive) | > 100 µM (inactive) | > 100 µM (inactive) | > 100 µM | –
2 | CCOC(=O)[C@H]1CSC[C@@H](C(=O)OC)N1 | > 100 µM (inactive) | > 100 µM (inactive) | > 100 µM (inactive) | > 100 µM (inactive) | > 100 µM (inactive) | > 100 µM (inactive) | > 100 µM (inactive) | – | > 100 µM (inactive) | > 100 µM (inactive) | > 100 µM (inactive) | 23.1 µM (inactive) | > 100 µM (inactive) | > 100 µM (inactive) | > 100 µM (inactive) | > 100 µM (inactive) | > 100 µM (inactive) | > 100 µM | > 100 µM (inactive)
3 | Clc1ccc(C2=NOC(C3CCCCC3)C2)cc1 (stereo not given) | > 100 µM (inactive) | > 100 µM (inactive) | – | > 100 µM (inactive) | > 100 µM (inactive) | > 100 µM (inactive) | > 100 µM (inactive) | > 100 µM (inactive) | > 100 µM (inactive) | > 100 µM (inactive) | > 100 µM (inactive) | > 100 µM (inactive) | > 100 µM (inactive) | – | > 100 µM (inactive) | > 100 µM (inactive) | > 100 µM (inactive) | > 100 µM | > 100 µM (inactive)
4 | O=C(CP(=O)(O)O)c1cccs1 | > 100 µM (inactive) | > 100 µM (inactive) | > 100 µM (inactive) | > 100 µM (inactive) | > 100 µM (inactive) | > 100 µM (inactive) | > 100 µM (inactive) | > 100 µM (inactive) | – | > 100 µM (inactive) | > 100 µM (inactive) | > 100 µM (inactive) | > 100 µM (inactive) | – | > 100 µM (inactive) | > 100 µM (inactive) | > 100 µM (inactive) | > 100 µM | > 100 µM (inactive)
